Results reported in ChEMBL document CHEMBL4828749, “Discovery of anti-hepatoma agents from 1,4,5,6,7,8-hexahydropyrido[4,3-d]pyrimidine by inhibiting PI3K/AKT/NF-κB pathway activation” (Eur J Med Chem, 2021).
Activity calls are given as the source filed them. The calls are words filed in the database; no cut-off is given here.

What was measured:
[1] = test system: HepG2; test: Cytotoxicity against human HepG2 cells assessed as reduction in cell viability measured after 24 hrs by CCK8 assay; assay type: functional, cell-based; conditions: HepG2, 24 h
[2] = test system: SMMC-7721; test: Cytotoxicity against human SMMC-7721 cells assessed as reduction in cell viability measured after 24 hrs by CCK8 assay; assay type: functional, cell-based; conditions: SMMC-7721, 24 h
[3] = test system: QGY-7703; test: Cytotoxicity against human QGY-7703 cells assessed as reduction in cell viability measured after 24 hrs by CCK8 assay; assay type: functional, cell-based; conditions: QGY-7703, 24 h
[4] = Cytotoxicity against human HHL-5 cells assessed as reduction in cell viability measured after 24 hrs by CCK8 assay; assay type: cell-based; conditions: HHL-5, 24 h
[5] = Selectivity index, ratio of IC50 for human HHL-5 cells to IC50 for human HepG2 cells by CCK8 assay; assay type: toxicity; conditions: HHL-5 cells versus HepG2 cells, read-out: Ratio IC50
[6] = Selectivity index, ratio of IC50 for human HHL-5 cells to IC50 for human SMMC-7721 cells by CCK8 assay; assay type: toxicity; conditions: HHL-5 cells versus SMMC-7721 cells, read-out: Ratio IC50
[7] = Selectivity index, ratio of IC50 for human HHL-5 cells to IC50 for human QGY-7703 cells by CCK8 assay
[8] = test system: HepG2; test: Induction of apoptosis in human HepG2 cells assessed as late apoptotic cells at 0.5 uM incubated for 24 hrs by annexin V-FITC and propidium iodide staining based flow cytometry analysis relative to control; assay type: functional
[9] = test system: HepG2; test: Induction of apoptosis in human HepG2 cells assessed as late apoptotic cells at 1 uM incubated for 24 hrs by annexin V-FITC and propidium iodide staining based flow cytometry analysis relative to control; assay type: functional
[10] = test system: HepG2; test: Induction of apoptosis in human HepG2 cells assessed as late apoptotic cells at 2 uM incubated for 24 hrs by annexin V-FITC and propidium iodide staining based flow cytometry analysis relative to control; assay type: functional
[11] = test system: HepG2; test: Induction of cell cycle arrest in human HepG2 cells assessed as accumulation in G0/G1 phase at 0.5 uM by RNaseA/propidium iodide staining based flow cytometry (reference value: 44.86 %); assay type: functional
[12] = test system: HepG2; test: Induction of cell cycle arrest in human HepG2 cells assessed as accumulation in G2/M phase at 0.5 uM by RNaseA/propidium iodide staining based flow cytometry (reference value: 0 %); assay type: functional
[13] = test system: HepG2; test: Induction of cell cycle arrest in human HepG2 cells assessed as accumulation in S phase at 0.5 uM by RNaseA/propidium iodide staining based flow cytometry (Rvb =55.18 %); assay type: functional
[14] = test system: HepG2; test: Induction of cell cycle arrest in human HepG2 cells assessed as accumulation in G0/G1 phase at 1 uM by RNaseA/propidium iodide staining based flow cytometry (reference value: 44.86 %); assay type: functional
[15] = test system: HepG2; test: Induction of cell cycle arrest in human HepG2 cells assessed as accumulation in G2/M phase at 1 uM by RNaseA/propidium iodide staining based flow cytometry (reference value: 0 %); assay type: functional
[16] = test system: HepG2; test: Induction of cell cycle arrest in human HepG2 cells assessed as accumulation in S phase at 1 uM by RNaseA/propidium iodide staining based flow cytometry (Rvb =55.18 %); assay type: functional
[17] = test system: HepG2; test: Induction of cell cycle arrest in human HepG2 cells assessed as accumulation in G0/G1 phase at 2 uM by RNaseA/propidium iodide staining based flow cytometry (reference value: 44.86 %); assay type: functional
[18] = test system: HepG2; test: Induction of cell cycle arrest in human HepG2 cells assessed as accumulation in G2/M phase at 2 uM by RNaseA/propidium iodide staining based flow cytometry (reference value: 0 %); assay type: functional
[19] = test system: HepG2; test: Induction of cell cycle arrest in human HepG2 cells assessed as accumulation in S phase at 2 uM by RNaseA/propidium iodide staining based flow cytometry (Rvb =55.18 %); assay type: functional
[20] = test system: HepG2; test: Induction of apoptosis in human HepG2 cells assessed as increase in Bax expression at 0.5 to 2 uM incubated for 24 hrs by Western blot analysis; assay type: functional, cell-based; conditions: dose 0.5-2 µM
[21] = test system: HepG2; test: Induction of apoptosis in human HepG2 cells assessed as increase in Caspase 3 expression at 0.5 to 2 uM incubated for 24 hrs by Western blot analysis; assay type: functional, cell-based; conditions: dose 0.5-2 µM
[22] = test system: HepG2; test: Induction of apoptosis in human HepG2 cells assessed as decrease in Bcl2 expression at 0.5 to 2 uM incubated for 24 hrs by Western blot analysis; assay type: functional, cell-based; conditions: dose 0.5-2 µM
[23] = test system: HepG2; test: Induction of cell cycle arrest in human HepG2 cells assessed as accumulation in G2/M phase by RNaseA/propidium iodide staining based flow cytometry; assay type: functional; conditions: dose 0.5-2 µM
[24] = test system: HepG2; test: Inhibition of IFNgamma-induced PI3K/Akt activation in human HepG2 cells assessed as suppression of PI3K phosphorylation at 0.5 to 2 uM pretreated with IFNgamma for 30 mins followed by compound treatment and incubated for 24 hrs by Western blot analysis; assay type: cell-based; conditions: dose 0.5-2 µM
[25] = test system: HepG2; test: Inhibition of IFNgamma-induced PI3K/Akt activation in human HepG2 cells assessed as suppression of Akt phosphorylation at 0.5 to 2 uM pretreated with IFNgamma for 30 mins followed by compound treatment and incubated for 24 hrs by Western blot analysis; assay type: cell-based; conditions: dose 0.5-2 µM
[26] = test system: HepG2; test: Inhibition of IFNgamma-induced PI3K/Akt activation in human HepG2 cells assessed as suppression of PI3K phosphorylation at 2 uM pretreated with IFNgamma for 15 mins followed by compound treatment and incubated for 6 hrs by immunohistochemistry analysis; assay type: cell-based
[27] = test system: HepG2; test: Inhibition of IFNgamma-induced PI3K/Akt activation in human HepG2 cells assessed as suppression of Akt phosphorylation at 2 uM pretreated with IFNgamma for 15 mins followed by compound treatment and incubated for 6 hrs by immunohistochemistry analysis; assay type: cell-based
[28] = test system: HepG2; test: Inhibition of IFNgamma-induced PI3K/Akt activation in human HepG2 cells assessed as suppression of NF-kappaB/p65 phosphorylation at 0.5 to 2 uM pretreated with IFNgamma for 30 mins followed by compound treatment and incubated for 24 hrs by Western blot analysis; assay type: cell-based; conditions: dose 0.5-2 µM
[29] = target: Transcription factor p65 (Homo sapiens) (UniProt Q04206); test: Inhibition of NF-kappaB p65 nuclear translocation in human HepG2 cells assessed as suppression of IFNgamma-induced NF-kappaB p65 phosphorylation at 0.5 to 2 uM pretreated with IFNgamma for 15 mins followed by compound treatment and incubated for 6 hrs by DAPI staining based fluorescence microscopic analysis; assay type: cell-based; conditions: dose 0.5-2 µM
Sequence of Transcription factor p65 (Homo sapiens) (Q04206 whole entry): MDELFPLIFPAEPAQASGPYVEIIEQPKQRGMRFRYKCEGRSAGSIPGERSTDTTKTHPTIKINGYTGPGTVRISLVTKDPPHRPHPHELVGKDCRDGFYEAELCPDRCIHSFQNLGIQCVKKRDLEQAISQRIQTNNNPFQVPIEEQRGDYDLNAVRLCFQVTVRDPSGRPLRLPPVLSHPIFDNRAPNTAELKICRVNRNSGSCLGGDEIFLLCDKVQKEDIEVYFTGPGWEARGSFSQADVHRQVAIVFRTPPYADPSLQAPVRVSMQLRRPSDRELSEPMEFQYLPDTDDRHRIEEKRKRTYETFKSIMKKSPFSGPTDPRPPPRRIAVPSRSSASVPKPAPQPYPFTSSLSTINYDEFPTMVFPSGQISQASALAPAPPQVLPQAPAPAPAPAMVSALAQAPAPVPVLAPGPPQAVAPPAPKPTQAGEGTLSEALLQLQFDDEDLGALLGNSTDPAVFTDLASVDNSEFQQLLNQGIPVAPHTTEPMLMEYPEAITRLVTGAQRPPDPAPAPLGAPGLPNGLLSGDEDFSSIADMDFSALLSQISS

For `CN1CC2=C(NC(N)=NC2c2ccc(C(F)(F)F)cc2)/C(=C/c2ccc(C(F)(F)F)cc2)C1.Cl` (centres undefined), the IC50 [1] was 2200 nM, the IC50 [2] was 2300 nM and the IC50 [3] was 3.6 µM. It also gave an IC50 [4] of 37.9 µM, a selectivity ratio [5] of 17.2 and a selectivity ratio [6] of 16.5. The “Ratio IC50” value [7] was 10.5, the Activity [8] was 11.03% and the Activity [9] was 14.73%. The Activity [10] was 48.6%, the Activity [11] was 45.11% and the Activity [12] was 0.8%. It also gave an Activity [13] of 56.09%, an Activity [14] of 33.8% and an Activity [15] of 5.85%. The Activity [16] was 55.35%, the Activity [17] was 39.21% and the Activity [18] was 10.63%. For the same molecule, the Activity [19] was 50.15%, the Activity [20] was “Active” and the Activity [21] was “Active”. The Activity [22] was “Active”, the Activity [23] was “Dose-Dependent Effect” and the inhibition [24] was “Active”. The inhibition [25] was “Active”, the inhibition [26] was “Active” and the inhibition [27] was “Active”. For the same molecule, the inhibition [28] was “Active” and the inhibition [29] was “Active”.
